The source of these data is article PMC9604400, “Synthesis, Anticancer and Antitubercular Properties of New Chalcones and Their Nitrogen-Containing Five-Membered Heterocyclic Hybrids Bearing Sulfonamide Moiety” (International Journal of Molecular Sciences, 2022).

In general, melting point refers to the temperature, or range, at which the solid turns liquid. A word on the MIC: it is the lowest concentration that inhibits growth of the organism.

Marks after values point to notes of the source that are not given here.

The subject of one series is M. tuberculosis H37Rv. As to the kind of experiment: Checkerboard synergism assay. The settings on record: for MIC: Mycobacterium tuberculosis, H37RV, checkerboard, alone. The class given is cell-based, Mycobacterium tuberculosis.
For series [1], the system named is 60 human cancer cell lines. As to the kind of experiment: NCI-60 screen (SRB), whole panel. The class given is cell-based. Particulars: single dose 10 μM; for inhibition at 10 µM: Homo sapiens, mean over 60 cell lines, over 100% = cell death, read-out: Mean growth inhibition (GI) percentage.
Where [2] appears, read: antibiotic in combination with 20a.
Where [3] appears, read: antibiotic in combination with 20f.

Experimental for M. tuberculosis H37Rv: The synergism assays were carried out in 96-well plates with Middlebrook 7H9 medium supplemented with OADC.

`COc1ccc(C(=O)/C=C/c2ccc(C)cc2)cc1S(=O)(=O)NNC(=O)c1ccncc1` displayed a melting point of 250 to 252 °C.

Regarding `COc1ccc(C2=NN(C=O)C(c3ccc(Cl)cc3)C2)cc1S(=O)(=O)Nc1cccnc1` (centres unmarked), the melting point was 241 to 243 °C.

In the case of `COc1cc(OC)c(S(N)(=O)=O)cc1C1=NN(C=O)C(c2ccc(Cl)cc2)C1` (centres unmarked), the melting point was in the range of 269 to 271 °C.

In turn, `COc1ccc(C2=NN(C(C)=O)C(c3ccc(Cl)cc3)C2)cc1S(N)(=O)=O` (centres unmarked) showed a melting point of 229 to 232 °C.

`COc1ccc(C2=NN(C=O)C(c3ccc(Cl)cc3)C2)cc1S(=O)(=O)NNC(=O)c1ccncc1` (centres unmarked) had a melting point of 156 to 158 °C.

For `COc1cc(OC)c(S(=O)(=O)NNC(=O)c2ccncc2)cc1C1=NN(C=O)C(c2ccc(Cl)cc2)C1` (centres unmarked), the melting point lay within 166 to 168 °C.

Turning to `COc1ccc(C2=NN(C(C)=O)C(c3ccc(Cl)cc3)C2)cc1S(=O)(=O)NNC(=O)c1ccncc1` (centres unmarked), the melting point fell in the range of 146 to 148 °C.

`COc1ccc(C2=NN(C(N)=S)C(c3ccc(Cl)cc3)C2)cc1S(=O)(=O)Nc1cccnc1` (centres unmarked) came in with a melting point of 236 to 238 °C.

In turn, `COc1cc(OC)c(S(=O)(=O)NNC(=O)c2ccncc2)cc1C1=NN(C(N)=S)C(c2ccc(Cl)cc2)C1` (centres unmarked) came in with a melting point of 180 to 182 °C.

Take `NCC[C@H](O)C(=O)N[C@@H]1C[C@H](N)[C@@H](O[C@H]2O[C@H](CN)[C@@H](O)[C@H](O)[C@H]2O)[C@H](O)[C@H]1O[C@H]1O[C@H](CO)[C@@H](O)[C@H](N)[C@H]1O` [AMK, amikacin, reference compound]: the MIC in the series on M. tuberculosis H37Rv worked out at 1.5 µg/mL. Also, in the series on M. tuberculosis H37Rv (setting [2]), the “FICI Index” value was found to be 2.00 and the “MIC Combination” value came to 1.5 µg/mL. In the series with M. tuberculosis H37Rv (setting [3]), the “FICI Index” value worked out at 2.00 and the “MIC Combination” value stood at 1.5 µg/mL.

Regarding `COc1cc(OC)c(S(N)(=O)=O)cc1C(C)=O` [Compound 8b, 5-Acetyl-2,4-dimethoxybenzenesulfonamide], in series [1], the “antiproliferative activity (in words)” value is on record as “low antiproliferative activity”.

Turning to `COc1ccc(C(C)=O)cc1S(=O)(=O)Nc1cccnc1` [Compound 10, 5-Acetyl-2-methoxy-N-(pyridin-3-yl)benzenesulfonamide], in series [1], the inhibition at 10 µM was 3.21% and the “antiproliferative activity (in words)” value was “low antiproliferative activity”.

Take `COc1cc(OC)c(S(=O)(=O)N(CCCl)CCCl)cc1C(C)=O` [Compound 12, 5-Acetyl-N,N-bis(2-chloroethyl)-2,4-dimethoxybenzenesulfonamide]: the “antiproliferative activity (in words)” value in series [1] is listed as “low antiproliferative activity”.

With `COc1ccc(C(C)=O)cc1S(=O)(=O)NNC(=O)c1ccncc1` [Compound 14a, 5-Acetyl-N’-isonicotinoyl-2-methoxybenzenesulfonohydrazide], in series [1], the inhibition at 10 µM was 2.09% and the “antiproliferative activity (in words)” value is “low antiproliferative activity”.

Regarding `COc1cc(OC)c(S(=O)(=O)NNC(=O)c2ccncc2)cc1C(C)=O` [Compound 14b, 5-Acetyl-N’-isonicotinoyl-2,4-dimethoxybenzenesulfonohydrazide], in series [1], the “antiproliferative activity (in words)” value was “low antiproliferative activity”.

`COc1ccc(C(=O)C=Cc2ccccc2)cc1S(=O)(=O)Nc1cccnc1` [Compound 16a, 5-Cinnamoyl-2-methoxy-N-(pyridin-3-yl)benzenesulfonamide] came in with a melting point of 229 to 230 °C. Moreover, in series [1], the inhibition at 10 µM turned out to be 16.5%.

In the case of `COc1ccc(C(=O)/C=C/c2ccc(Cl)cc2)cc1S(=O)(=O)Nc1cccnc1` [Compound 16b, (E)-5-(3-(4-Chlorophenyl)acryloyl)-2-methoxy-N-(pyridin-3-yl)benzenesulfonamide], the melting point is 256 to 258 °C. For the same molecule, in series [1], the inhibition at 10 µM was 17%.

`COc1ccc(C(=O)/C=C/c2ccc(C)cc2)cc1S(=O)(=O)Nc1cccnc1` [Compound 16c, (E)-2-Methoxy-N-(pyridin-3-yl)-5-(3-(p-tolyl)acryloyl)benzenesulfonamide] came in with a melting point of 231 to 234 °C. For the same molecule, the inhibition at 10 µM in series [1] came out at 12.2%.

On to `COc1ccc(/C=C/C(=O)c2ccc(OC)c(S(=O)(=O)Nc3cccnc3)c2)cc1` [Compound 16d, (E)-2-Methoxy-5-(3-(4-methoxyphenyl)acryloyl)-N-(pyridin-3-yl)benzenesulfonamide], for which the melting point is 228 to 230 °C. The inhibition at 10 µM in series [1] was found to be 10.2%.

Regarding `COc1cc(OC)c(S(=O)(=O)N(CCCl)CCCl)cc1C(=O)C=Cc1ccccc1` [Compound 18a, N,N-bis(2-chloroethyl)-5-cinnamoyl-2,4-dimethoxybenzenesulfonamide], the melting point is 184 to 186 °C.

In the case of `COc1cc(OC)c(S(=O)(=O)N(CCCl)CCCl)cc1C(=O)/C=C/c1ccc(Cl)cc1` [Compound 18b, (E)-N,N-bis(2-Chloroethyl)-5-(3-(4-chlorophenyl)acryloyl)-2,4-dimethoxybenzenesulfonamide], the melting point is 186 to 187 °C.

In turn, `COc1cc(OC)c(S(=O)(=O)N(CCCl)CCCl)cc1C(=O)/C=C/c1ccc(C)cc1` [Compound 18c, (E)-N,N-bis(2-Chloroethyl)-2,4-dimethoxy-5-(3-(p-tolyl)acryloyl)benzenesulfonamide] showed a melting point of 186 to 189 °C.

Molecule `COc1ccc(/C=C/C(=O)c2cc(S(=O)(=O)N(CCCl)CCCl)c(OC)cc2OC)cc1` [Compound 18d, (E)-N,N-bis(2-Chloroethyl)-2,4-dimethoxy-5-(3-(4-methoxyphenyl)acryloyl)benzenesulfonamide] came in with a melting point of 168 to 171 °C.

`COc1cc(OC)c(S(=O)(=O)N(CCCl)CCCl)cc1C(=O)/C=C/c1ccc2c(c1)OCO2` [Compound 18f, (E)-5-(3-(Benzo[d][1,3]dioxol-5-yl)acryloyl)-N,N-bis(2-chloroethyl)-2,4-dimethoxybenzenesulfonamide] showed a melting point of 193 to 196 °C.

Take `COc1cc(OC)c(S(=O)(=O)N(CCCl)CCCl)cc1C1=NN(C=O)C(c2ccc(Cl)cc2)C1` (centres unmarked) [Compound 22d, N,N-bis(2-Chloroethyl)-5-(5-(4-chlorophenyl)-1-formyl-4,5-dihydro-1H-pyrazol-3-yl)-2,4-dimethoxybenzenesulfonamide]: the melting point lay within 222 to 224 °C.

As to `COc1cc(OC)c(S(=O)(=O)N(CCCl)CCCl)cc1C1=NN(C(N)=S)C(c2ccc(Cl)cc2)C1` (centres unmarked) [Compound 27e, 3-(5-(N,N-bis(2-Chloroethyl)sulfamoyl)-2,4-dimethoxyphenyl)-5-(4-chlorophenyl)-4,5-dihydro-1H-pyrazole-1-carbothioamide], the melting point was 196 to 198 °C.

Turning to `C[C@H]1COc2c(N3CCN(C)CC3)c(F)cc3c(=O)c(C(=O)O)cn1c23` [Levofloxacin, levofloxacin, reference compound], the MIC in the series with M. tuberculosis H37Rv was 0.5 µg/mL. Moreover, in the series on M. tuberculosis H37Rv (setting [2]), the “FICI Index” value came to 1.25 and the “MIC Combination” value was found to be 0.5 µg/mL. Besides, in the series with M. tuberculosis H37Rv (setting [3]), the “FICI Index” value came to 1.00 and the “MIC Combination” value was 0.25 µg/mL.

As for `CO[C@H]1/C=C/O[C@@]2(C)Oc3c(C)c(O)c4c(O)c(c(/C=N/N5CCN(C)CC5)c(O)c4c3C2=O)NC(=O)/C(C)=C\C=C\[C@H](C)[C@H](O)[C@@H](C)[C@@H](O)[C@@H](C)[C@H](OC(C)=O)[C@@H]1C` [RIF, rifampicin, reference compound], the “MIC Combination” value with M. tuberculosis H37Rv (setting [2]) was 0.048 µg/mL. Further, in the series on M. tuberculosis H37Rv (setting [3]), the “FICI Index” value is 0.37 * and the “MIC Combination” value was 0.048 µg/mL.
